According to PubChem BioAssay AID330 (DTP/NCI, 2004):
Where “and” joins values, the source holds several entries; their conditions need not be identical. Equal entries are not always repeated. Inconclusive results and toxic doses are left out.

Test system: P388 leukemia ip, CD2F1 mice, survival T/C
Assay: NCI In Vivo Anticancer Drug Screen. Data for tumor model P388 Leukemia (intraperitoneal) in CD2F1 (CDF1) mice
Settings: endpoint: median survival time, higher = longer survival
Outline: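 Mice carrying the transplanted tumor received test compound or vehicle. Survival was recorded in each group, and the value is the treated-group measurement divided by that of the vehicle-treated control group.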

[1] = dose: 12.5 mg/kg/injection, schedule: Q01DX009 (ip), vehicle: Klucel (hydroxypropylcellulose) (HPC)
[2] = dose: 25.0 mg/kg/injection, schedule: Q01DX009 (ip), vehicle: Klucel (hydroxypropylcellulose) (HPC)
[3] = dose: 50.0 mg/kg/injection, schedule: Q01DX009 (ip), vehicle: Klucel (hydroxypropylcellulose) (HPC)
[4] = dose: 100.0 mg/kg/injection, schedule: Q01DX009 (ip), vehicle: Klucel (hydroxypropylcellulose) (HPC)
[5] = dose: 50.0 mg/kg/injection, schedule: Q01DX005 (ip), vehicle: saline with Tween-80
[6] = dose: 100.0 mg/kg/injection, schedule: Q01DX005 (ip), vehicle: saline with Tween-80
[7] = dose: 200.0 mg/kg/injection, schedule: Q01DX005 (ip), vehicle: saline with Tween-80
[8] = dose: 50.0 mg/kg/injection, schedule: Q01DX009 (ip), vehicle: saline
[9] = dose: 100.0 mg/kg/injection, schedule: Q01DX009 (ip), vehicle: saline
[10] = dose: 200.0 mg/kg/injection, schedule: Q01DX009 (ip), vehicle: saline
[11] = dose: 50.0 mg/kg/injection, schedule: Q01DX009 (ip), vehicle: saline with Tween-80
[12] = dose: 100.0 mg/kg/injection, schedule: Q01DX009 (ip), vehicle: saline with Tween-80
[13] = dose: 200.0 mg/kg/injection, schedule: Q01DX009 (ip), vehicle: saline with Tween-80
[14] = dose: 25.0 mg/kg/injection, schedule: Q01DX005 (ip), vehicle: Klucel (hydroxypropylcellulose) (HPC)
[15] = dose: 50.0 mg/kg/injection, schedule: Q01DX005 (ip), vehicle: Klucel (hydroxypropylcellulose) (HPC)
[16] = dose: 100.0 mg/kg/injection, schedule: Q01DX005 (ip), vehicle: Klucel (hydroxypropylcellulose) (HPC)
[17] = dose: 200.0 mg/kg/injection, schedule: Q01DX005 (ip), vehicle: Klucel (hydroxypropylcellulose) (HPC)
[18] = dose: 60.0 mg/kg/injection, schedule: Q01DX005 (ip), vehicle: saline with Tween-80
[19] = dose: 120.0 mg/kg/injection, schedule: Q01DX005 (ip), vehicle: saline with Tween-80
[20] = dose: 3.12 mg/kg/injection, schedule: Q01DX009 (ip), vehicle: saline
[21] = dose: 6.25 mg/kg/injection, schedule: Q01DX009 (ip), vehicle: saline
[22] = dose: 12.5 mg/kg/injection, schedule: Q01DX005 (ip), vehicle: Klucel (hydroxypropylcellulose) (HPC)

## CCCC(C)C(CC)C(=O)NC(N)=O (stereo not drawn)
[1]
  T/C: 101 % of control
[2]
  T/C: 102 % of control
[3]
  T/C: 98 % of control
[4]
  T/C: 101 % of control

## COC(=O)C1CCOCCCOCCCOCCCOCCCOCCCC1=O (stereo not drawn)
[5]
  T/C: 100 % of control
[6]
  T/C: 105 % of control
[7]
  T/C: 100 % of control

## C=CC1(C)N=C1N(C)C (stereo not drawn)
[8]
  T/C: 105 % of control
[9]
  T/C: 97 % of control
[10]
  T/C: 96 % of control

## CCCCN1C(=O)/C(=C/c2ccc(OC)c(OC)c2OC)SC1=S
[11]
  T/C: 93 % of control
[12]
  T/C: 92 % of control
[13]
  T/C: 94 % of control

## COc1cc(/C=C/c2ccncc2)ccc1OC(C)=O
[14]
  T/C: 100 % of control
[15]
  T/C: 100 % of control
[16]
  T/C: 101 % of control
[17]
  T/C: 100 % of control

## COc1cc2c(cc1OC)C(c1ccccc1[N+](=O)[O-])=NCC2
[15]
  T/C: 99 % of control
[16]
  T/C: 94 % of control
[17]
  T/C: 92 % of control

## [Cu+2].[O-]/N=C/c1cccc(O)c1[O-].[O-]/N=C/c1cccc(O)c1[O-]
dose: 3.75 mg/kg/injection, schedule: Q01DX005 (ip), vehicle: saline with Tween-80
  T/C: 98 % of control
dose: 7.5 mg/kg/injection, schedule: Q01DX005 (ip), vehicle: saline with Tween-80
  T/C: 100 % of control
dose: 15.0 mg/kg/injection, schedule: Q01DX005 (ip), vehicle: saline with Tween-80
  T/C: 99 % of control and 104 % of control
dose: 30.0 mg/kg/injection, schedule: Q01DX005 (ip), vehicle: saline with Tween-80
  T/C: 102 % of control
[18]
  T/C: 99 % of control
[19]
  T/C: 92 % of control

## O=NNc1ccc(-c2ccc([N+](=O)[O-])cc2)cn1
[20]
  T/C: 170 % of control
[21]
  T/C: 108 % of control

## CC1=CC(OC2CCCCC2)OC1=O (stereo not drawn)
dose: 47.5 mg/kg/injection, schedule: Q01DX005 (ip), vehicle: Klucel (hydroxypropylcellulose) (HPC)
  T/C: 104 % of control
dose: 95.0 mg/kg/injection, schedule: Q01DX005 (ip), vehicle: Klucel (hydroxypropylcellulose) (HPC)
  T/C: 101 % of control
dose: 190.0 mg/kg/injection, schedule: Q01DX005 (ip), vehicle: Klucel (hydroxypropylcellulose) (HPC)
  T/C: 104 % of control

## C=CCOc1cc2c(cc1C(CC)c1ccc(OCc3ccccc3)cc1)OCO2 (stereo not drawn)
[5]
  T/C: 102 % of control
[6]
  T/C: 100 % of control
[7]
  T/C: 95 % of control

## Cc1ccc2nc(CC(O)(c3ccccc3)c3ccccc3)ccc2c1
[11]
  T/C: 110 % of control
[12]
  T/C: 95 % of control
[13]
  T/C: 94 % of control

## CC[N+](C)(C)c1ccccc1
dose: 6.25 mg/kg/injection, schedule: Q04DX002 (ip), vehicle: saline
  T/C: 102 % of control
dose: 12.5 mg/kg/injection, schedule: Q04DX002 (ip), vehicle: saline
  T/C: 105 % of control
dose: 25.0 mg/kg/injection, schedule: Q04DX002 (ip), vehicle: saline
  T/C: 99 % of control and 102 % of control

## COc1ccc(NN=O)nc1Br
[20]
  T/C: 108 % of control
[21]
  T/C: 108 % of control
dose: 12.5 mg/kg/injection, schedule: Q01DX009 (ip), vehicle: saline
  T/C: 108 % of control and 109 % of control
dose: 25.0 mg/kg/injection, schedule: Q01DX009 (ip), vehicle: saline
  T/C: 110 % of control and 120 % of control
[9]
  T/C: 157 % of control

## CC1CCC2C(C)C(=O)OC2C2(C)C(=O)C=CC12 (stereo not drawn)
dose: 12.5 mg/kg/injection, schedule: Q01DX009 (ip), vehicle: saline with Tween-80
  T/C: 103 % of control
dose: 25.0 mg/kg/injection, schedule: Q01DX009 (ip), vehicle: saline with Tween-80
  T/C: 113 % of control
[11]
  T/C: 110 % of control

## CC(C)CC(=O)O[C@@H]1OC=C(COC2OC(CO)C(O)C(O)C2O)[C@H]2CC(=O)[C@@H](C)[C@@H]12 (stereo partly drawn)
dose: 8.0 mg/kg/injection, schedule: Q01DX005 (ip), vehicle: saline
  T/C: 118 % of control
dose: 16.0 mg/kg/injection, schedule: Q01DX005 (ip), vehicle: saline
  T/C: 116 % of control
dose: 32.0 mg/kg/injection, schedule: Q01DX005 (ip), vehicle: saline
  T/C: 107 % of control
dose: 64.0 mg/kg/injection, schedule: Q01DX005 (ip), vehicle: saline
  T/C: 110 % of control

## Cc1cc2nc3cc(C)c(N)cc3[n+](-c3ccccc3)c2cc1N
dose: 6.25 mg/kg/injection, schedule: Q01DX005 (ip), vehicle: Klucel (hydroxypropylcellulose) (HPC)
  T/C: 109 % of control
[22]
  T/C: 116 % of control

## Clc1ccc(CN2Cc3ccc4cccnc4c3OC2c2ccccn2)cc1Cl (stereo not drawn)
[3]
  T/C: 100 % of control
[4]
  T/C: 101 % of control
dose: 200.0 mg/kg/injection, schedule: Q01DX009 (ip), vehicle: Klucel (hydroxypropylcellulose) (HPC)
  T/C: 101 % of control

## C#CC(OS(=O)(=O)C(F)(F)F)=C1C2CC3CC(C2)CC1C3
[5]
  T/C: 100 % of control
[6]
  T/C: 98 % of control
[7]
  T/C: 100 % of control

## N#CCc1nn(-c2ccccc2)c2ncnc(N)c12
dose: 6.25 mg/kg/injection, schedule: Q01DX009 (ip), vehicle: Klucel (hydroxypropylcellulose) (HPC)
  T/C: 103 % of control
[1]
  T/C: 100 % of control and 114 % of control and 94 % of control
[2]
  T/C: 108 % of control and 97 % of control (2×)
[3]
  T/C: 100 % of control and 120 % of control and 98 % of control
[4]
  T/C: 106 % of control

## CN=C(NC)c1ccc(NC(=O)c2ccc(C(=O)Nc3ccc(C(=NC)NC)c(OC)c3)c(Cl)c2)cc1OC
dose: 0.78 mg/kg/injection, schedule: Q01DX005 (ip), vehicle: saline with Tween-80
  T/C: 101 % of control
dose: 1.56 mg/kg/injection, schedule: Q01DX005 (ip), vehicle: saline with Tween-80
  T/C: 104 % of control
dose: 3.13 mg/kg/injection, schedule: Q01DX005 (ip), vehicle: saline with Tween-80
  T/C: 105 % of control

## CCCCn1c(=O)cc(C(=O)O)[nH]c1=O
[11]
  T/C: 104 % of control
[12]
  T/C: 100 % of control
[13]
  T/C: 94 % of control

## CN(C)CC#CCCCS(=O)(=O)c1ccccc1
dose: 60.0 mg/kg/injection, schedule: Q01DX005 (ip), vehicle: saline
  T/C: 97 % of control
dose: 120.0 mg/kg/injection, schedule: Q01DX005 (ip), vehicle: saline
  T/C: 99 % of control

## CC(=O)OC1C(=O)OC(=O)C(OC(C)=O)C1OC(C)=O (stereo not drawn)
[8]
  T/C: 100 % of control
[9]
  T/C: 93 % of control
[10]
  T/C: 100 % of control

## COc1cc(C(CC(C)=O)c2cc3c(cc2OC(C)=O)OCO3)cc(OC)c1OC(C)=O (stereo not drawn)
[18]
  T/C: 105 % of control
[19]
  T/C: 89 % of control

## COc1ccc(/C=N/n2cnc3c(sc4ccccc43)c2=O)cc1
[22]
  T/C: 99 % of control
[14]
  T/C: 100 % of control
[15]
  T/C: 87 % of control and 92 % of control
[17]
  T/C: 92 % of control

## Cc1cc2c(c(O)cc(=O)n2C)c(=O)n1C
dose: 60.0 mg/kg/injection, schedule: Q01DX005 (ip), vehicle: Klucel (hydroxypropylcellulose) (HPC)
  T/C: 102 % of control
dose: 120.0 mg/kg/injection, schedule: Q01DX005 (ip), vehicle: Klucel (hydroxypropylcellulose) (HPC)
  T/C: 91 % of control
dose: 240.0 mg/kg/injection, schedule: Q01DX005 (ip), vehicle: Klucel (hydroxypropylcellulose) (HPC)
  T/C: 91 % of control

## COC(=O)C1=C(C)NC(C)=C(C(=O)OC)C1c1ccc(Cl)c([N+](=O)[O-])c1
[5]
  T/C: 99 % of control
[6]
  T/C: 96 % of control
[7]
  T/C: 92 % of control

## O=S1(=O)Oc2c(Cl)cc(Cl)cc2S(=O)(=O)Oc2c(Cl)cc(Cl)cc21
[18]
  T/C: 93 % of control
[19]
  T/C: 94 % of control
dose: 240.0 mg/kg/injection, schedule: Q01DX005 (ip), vehicle: saline with Tween-80
  T/C: 86 % of control

## O=C1OC2(c3ccccc31)c1cc(I)c(O)c(I)c1Oc1c2cc(I)c(O)c1I
dose: 100.0 mg/kg/injection, schedule: Q04DX003 (ip), vehicle: saline with Tween-80
  T/C: 91 % of control
dose: 200.0 mg/kg/injection, schedule: Q04DX003 (ip), vehicle: saline with Tween-80
  T/C: 95 % of control
